Experimental data: PubChem BioAssay AID248 (DTP/NCI, 2004)
“And” between values parts separate entries of the source, which are not always exact repeats. Equal entries are not always repeated. Toxic doses and inconclusive results are not listed. No stated cut-off is given here; in the data, active means T/C of 150% or more; inactive means T/C below 125%.

Test system: L1210 leukemia ip in BDF1 mice, survival T/C
Assay: NCI In Vivo Anticancer Drug Screen. Data for tumor model L1210 Leukemia (intraperitoneal) in B6D2F1 (BDF1) mice
Conditions: endpoint: mean survival time, higher = longer survival
Procedure, shortened: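 Transplanted-tumor mice were given test agent; controls received vehicle only. Survival readings from the two groups were divided (treated over control).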

[1] = dose: 100.0 mg/kg/injection, schedule: Q04DX003 (ip), vehicle: saline with Tween-80
[2] = dose: 200.0 mg/kg/injection, schedule: Q04DX003 (ip), vehicle: saline with Tween-80
[3] = dose: 400.0 mg/kg/injection, schedule: Q04DX003 (ip), vehicle: saline with Tween-80
[4] = dose: 100.0 mg/kg/injection, schedule: Q01DX001 (ip), vehicle: saline
[5] = dose: 200.0 mg/kg/injection, schedule: Q01DX001 (ip), vehicle: saline
[6] = dose: 50.0 mg/kg/injection, schedule: Q01DX001 (ip), vehicle: carboxymethylcellulose (CMC)
[7] = dose: 100.0 mg/kg/injection, schedule: Q01DX001 (ip), vehicle: carboxymethylcellulose (CMC)
[8] = dose: 200.0 mg/kg/injection, schedule: Q01DX001 (ip), vehicle: carboxymethylcellulose (CMC)
[9] = dose: 400.0 mg/kg/injection, schedule: Q01DX001 (ip), vehicle: carboxymethylcellulose (CMC)
[10] = dose: 50.0 mg/kg/injection, schedule: Q01DX001 (ip), vehicle: saline
[11] = dose: 400.0 mg/kg/injection, schedule: Q01DX001 (ip), vehicle: saline
[12] = dose: 100.0 mg/kg/injection, schedule: Q01DX009 (ip), vehicle: saline
[13] = dose: 100.0 mg/kg/injection, schedule: Q04DX003 (ip), vehicle: saline
[14] = dose: 100.0 mg/kg/injection, schedule: Q04DX002 (ip), vehicle: Klucel (hydroxypropylcellulose) (HPC)
[15] = dose: 200.0 mg/kg/injection, schedule: Q04DX002 (ip), vehicle: Klucel (hydroxypropylcellulose) (HPC)
[16] = dose: 400.0 mg/kg/injection, schedule: Q04DX002 (ip), vehicle: Klucel (hydroxypropylcellulose) (HPC)
[17] = dose: 100.0 mg/kg/injection, schedule: Q01DX001 (ip), vehicle: Klucel (hydroxypropylcellulose) (HPC)
[18] = dose: 200.0 mg/kg/injection, schedule: Q01DX001 (ip), vehicle: Klucel (hydroxypropylcellulose) (HPC)
[19] = dose: 100.0 mg/kg/injection, schedule: Q04DX003 (ip), vehicle: Klucel (hydroxypropylcellulose) (HPC)

Measured: T/C

CCCCCC(CN(C)C)C(/C=C/c1ccccc1Cl)OC(=O)c1ccc([N+](=O)[O-])cc1 (stereo not given)
inactive: [1] 95 % of control | [2] 92 % of control | [3] 92 % of control

Cc1ccc(C(=O)OCC(=O)c2ccc(-c3ccccc3)cc2)cc1
inactive: dose: 100.0 mg/kg/injection, schedule: Q01DX001 (ip), vehicle: other 89 % of control | dose: 200.0 mg/kg/injection, schedule: Q01DX001 (ip), vehicle: other 90 % of control

CCS(=O)c1c(Cl)c(Cl)c(Cl)c(Cl)c1Cl (stereo not given)
inactive: dose: 100.0 mg/kg/injection, schedule: Q01DX009 (ip), vehicle: Klucel (hydroxypropylcellulose) (HPC) 102 % of control | dose: 200.0 mg/kg/injection, schedule: Q01DX009 (ip), vehicle: Klucel (hydroxypropylcellulose) (HPC) 108 % of control | dose: 400.0 mg/kg/injection, schedule: Q01DX009 (ip), vehicle: Klucel (hydroxypropylcellulose) (HPC) 95 % of control

CSc1n[nH]c(=O)nc1SC
inactive: [4] 104 % of control | [5] 96 % of control

Fc1c(F)c(F)c(/C=N/Nc2nnc(N/N=C/c3c(F)c(F)c(F)c(F)c3F)c3ccccc23)c(F)c1F
inactive: [6] 93 % of control | [7] 95 % of control | [8] 98 % of control | [9] 95 % of control

Brc1ccc(N=N/C(=N/Nc2ccccc2)c2ccc(/C=N/Nc3ccccc3)cc2)cc1
inactive: [10] 95 % of control | [4] 101 % of control | [5] 95 % of control | [11] 91 % of control

O=S(=O)(O)CCBr
inactive: [10] 108 % of control | [4] 96 % of control and 104 % of control | [12] 97 % of control | [5] 101 % of control and 108 % of control | dose: 200.0 mg/kg/injection, schedule: Q01DX009 (ip), vehicle: saline 96 % of control | [11] 104 % of control and 106 % of control | dose: 400.0 mg/kg/injection, schedule: Q01DX009 (ip), vehicle: saline 108 % of control

C[N+](C)(C)c1ccc([N+](=O)[O-])cn1
inactive: [13] 101 % of control

CN(C)N=Nc1ccc2c(c1)C(=O)NC2=O
inactive: [1] 96 % of control | [2] 99 % of control | [3] 99 % of control

Cc1ccc2c(c1)C(=O)c1ccccc1C2=O
inactive: [6] 95 % of control | [7] 101 % of control | [14] 100 % of control | [8] 91 % of control | [15] 107 % of control | [9] 95 % of control | [16] 96 % of control

COC(=O)C1(C)COP(=O)(O)OC1 (stereo not given)
inactive: [4] 91 % of control and 103 % of control | [5] 89 % of control and 100 % of control | [11] 97 % of control

O=C(COc1ccc(Cl)cc1C(=O)O)NCc1ccc(NC(=O)Nc2cccc(S(=O)(=O)F)c2)cc1
inactive: [4] 96 % of control | [5] 93 % of control | [11] 104 % of control

C[S+](C)C12CC3CC(CC(C3)C1)C2
inactive: dose: 25.0 mg/kg/injection, schedule: Q01DX009 (ip), vehicle: saline 108 % of control | dose: 25.0 mg/kg/injection, schedule: Q04DX002 (ip), vehicle: saline 102 % of control | dose: 50.0 mg/kg/injection, schedule: Q01DX009 (ip), vehicle: saline 94 % of control | dose: 50.0 mg/kg/injection, schedule: Q04DX002 (ip), vehicle: saline 102 % of control | [12] 86 % of control | dose: 100.0 mg/kg/injection, schedule: Q04DX002 (ip), vehicle: saline 94 % of control and 96 % of control

COc1ccc2c(c1)CCC1C2=CC(=O)/C1=C\[O-].COc1ccc2c(c1)CCC1C2=CC(=O)/C1=C\[O-].[Cu+2] (stereo not given)
inactive: dose: 50.0 mg/kg/injection, schedule: Q01DX009 (ip), vehicle: saline with Tween-80 97 % of control | dose: 100.0 mg/kg/injection, schedule: Q01DX009 (ip), vehicle: saline with Tween-80 104 % of control | [13] 92 % of control | dose: 200.0 mg/kg/injection, schedule: Q04DX003 (ip), vehicle: saline 94 % of control

CC(C)OC(=O)COc1ccc(Cl)cc1
inactive: dose: 100.0 mg/kg/injection, schedule: Q01DX009 (ip), vehicle: carboxymethylcellulose (CMC) 101 % of control and 102 % of control | dose: 100.0 mg/kg/injection, schedule: Q04DX002 (ip), vehicle: carboxymethylcellulose (CMC) 101 % of control and 105 % of control | dose: 100.0 mg/kg/injection, schedule: Q04DX003 (ip), vehicle: carboxymethylcellulose (CMC) 102 % of control | dose: 200.0 mg/kg/injection, schedule: Q01DX009 (ip), vehicle: carboxymethylcellulose (CMC) 101 % of control and 91 % of control | dose: 200.0 mg/kg/injection, schedule: Q04DX002 (ip), vehicle: carboxymethylcellulose (CMC) 102 % of control and 106 % of control | dose: 200.0 mg/kg/injection, schedule: Q04DX003 (ip), vehicle: carboxymethylcellulose (CMC) 104 % of control | dose: 400.0 mg/kg/injection, schedule: Q01DX009 (ip), vehicle: carboxymethylcellulose (CMC) 108 % of control and 88 % of control | dose: 400.0 mg/kg/injection, schedule: Q04DX002 (ip), vehicle: carboxymethylcellulose (CMC) 98 % of control and 108 % of control | dose: 400.0 mg/kg/injection, schedule: Q04DX003 (ip), vehicle: carboxymethylcellulose (CMC) 101 % of control

CCCC1=NNC(=O)C1
inactive: [7] 100 % of control | [8] 100 % of control | [9] 96 % of control

NS(=O)(=O)c1ccc(CNC(=O)c2ccc(C(=O)NCc3ccc(S(N)(=O)=O)cc3)cc2)cc1
inactive: [4] 111 % of control | [5] 103 % of control | [11] 103 % of control

CC(C)(C)N1C(C(=O)c2ccccc2)C1C(=O)c1ccccc1 (stereo not given)
inactive: [17] 97 % of control | [18] 95 % of control | dose: 400.0 mg/kg/injection, schedule: Q01DX001 (ip), vehicle: Klucel (hydroxypropylcellulose) (HPC) 89 % of control

COc1ccc(F)cc1CCl
inactive: [14] 98 % of control | [15] 98 % of control | [16] 86 % of control

CC1(O)c2ccccc2-c2c1n([O-])c1ccccc1[n+]2=O (stereo not given)
inactive: dose: 100.0 mg/kg/injection, schedule: Q04DX003 (ip), vehicle: saline sonified 111 % of control | dose: 200.0 mg/kg/injection, schedule: Q04DX003 (ip), vehicle: saline sonified 100 % of control | dose: 400.0 mg/kg/injection, schedule: Q04DX003 (ip), vehicle: saline sonified 89 % of control

Oc1ccccc1C1CCCCC1
inactive: dose: 12.5 mg/kg/injection, schedule: Q01DX009 (ip), vehicle: gum acacia 102 % of control | dose: 25.0 mg/kg/injection, schedule: Q01DX009 (ip), vehicle: gum acacia 100 % of control | dose: 50.0 mg/kg/injection, schedule: Q01DX009 (ip), vehicle: gum acacia 98 % of control

c1ccc2c(c1)Sc1ccccc1N2CCCN1CCCC1
inactive: dose: 6.25 mg/kg/injection, schedule: Q04DX003 (ip), vehicle: saline 108 % of control | dose: 12.5 mg/kg/injection, schedule: Q04DX003 (ip), vehicle: saline 105 % of control | dose: 25.0 mg/kg/injection, schedule: Q04DX003 (ip), vehicle: saline 116 % of control | [10] 108 % of control and 123 % of control | dose: 50.0 mg/kg/injection, schedule: Q04DX003 (ip), vehicle: saline 106 % of control | [4] 97 % of control and 103 % of control

NC1=NC(c2ccccc2)N(c2ccccc2)C(N)=N1 (stereo not given)
inactive: [10] 99 % of control | [4] 104 % of control

COC1c2c(nc3ccccc3c2C(=O)O)-c2ccccc2C1(C)C (stereo not given)
inactive: [19] 104 % of control | dose: 200.0 mg/kg/injection, schedule: Q04DX003 (ip), vehicle: Klucel (hydroxypropylcellulose) (HPC) 104 % of control | dose: 400.0 mg/kg/injection, schedule: Q04DX003 (ip), vehicle: Klucel (hydroxypropylcellulose) (HPC) 106 % of control

CCN(CC)CCOc1cccc(O)c1
inactive: dose: 25.0 mg/kg/injection, schedule: Q04DX003 (ip), vehicle: Klucel (hydroxypropylcellulose) (HPC) 94 % of control | dose: 50.0 mg/kg/injection, schedule: Q04DX003 (ip), vehicle: Klucel (hydroxypropylcellulose) (HPC) 97 % of control | [17] 93 % of control | [19] 100 % of control and 107 % of control | [18] 91 % of control
